Reference: patent US8357350B2, “Annulus fibrosus detection in intervertebral discs using molecular imaging agents” (General Electric Company, priority 2009, dated 2013)

Experiments:
Test in all cases: FM fluorophore uptake, intraoperative fluorescence imaging; for Uptake: Dorsal Root Ganglia: key: +: Positive contrast was concluded if the nerve-to-muscle contrast ratio of FM fluorophore-injected animals was elevated relative to control animals; for Uptake: Intervertebral Disc: key: +: Positive contrast was concluded if the nerve-to-muscle contrast ratio of FM fluorophore-injected animals was elevated relative to control animals; for Uptake: Trigeminal Ganglia: key: +: Positive contrast was concluded if the nerve-to-muscle contrast ratio of FM fluorophore-injected animals was elevated relative to control animals
Type in all cases: in vivo, mice and rats
intervertebral discs = test system: intervertebral discs; for Uptake: Intervertebral Disc: key: +: Positive contrast was concluded if the nerve-to-muscle contrast ratio of FM fluorophore-injected animals was elevated relative to control animals
Method: (§1) Imaging was carried out at near infrared wavelenghts using a 400- to 700-nm “white” light (0.5 mW/cm^2) and a 725- to 775-nm NIR fluorescence excitation light (5 mW/cm^2). Fluorescence images were collected using exposure times ranging from 500 to 2000 msec. All images collected for comparison between vehicle-injected control animals and FM fluorophore-injected animals had the same exposure time and normalization. Color video images were collected on a separate optical channel using custom designed software. The excitation and emission LEDs and filter used for the FM fluorophores and Pam800 in the intraoperative imaging system are described as follows. For fluorescence excitation of FM 1-43, FM 2-10, FM 1-43FX and Formula IA, sixty 5-mm 470 nm LEDs ([…], Inc., Kyoto, Japan) fitted with 470±20 nm band pass (BP) excitation filters (Chroma Technology, Rockingham, Vt.) in custom holders were used, which produced a fluence rate on the imaging surface of 0.56 mW/cm^2. For fluorescence excitation of Formula II, FM 4-64, FM 4-64FX and FM 5-95, sixty 5-mm 535 nm LEDs fitted with 525±25 nm BP excitation filters were used, which produced a fluence rate on the imaging surface of 0.34 mW/cm^2. A 610±38 nm BP filter was used to detect fluorescence emission of FM 1-43, FM 2-10, Formula II, FM 1-43FX and Formula IA. To detect fluorescence emission of FM 4-64, FM 4-64FX and FM 5-95 a 720 nm long pass (LP) filter was used. For fluorescence excitation of Pam800, 348 5-mm 760 nm LEDs fitted with 764±17 nm BP excitation filters were used, which produced a fluence rate on the imaging surface of 8.73 mW/cm^2 and fluorescence emission was detected using a 824±24 nm BP emission filter. To assess the structure-activity relationship of the FM fluorophores, each molecule was administered at 5 mg/kg to mice and 0.5 mg/kg to rats (n=4 per group) in 10% DMSO and 90% PBS IP 16 hours before imaging with the intraoperative system. The fluorescence signal from the spinal cord, intervertebral discs, dorsal root ganglia, trigeminal ganglia, optic nerve, brain and femoral nerve were normalized to muscle signal in the same image. This normalization ratio was then compared between FM fluorophore-injected animals and vehicle-injected control animals.

dorsal root ganglia = conditions: 5 mg/kg mice, 0.5 mg/kg rats IP, 16 hours before imaging; signal normalized to muscle, vs vehicle control
Method: as §1

trigeminal ganglia = conditions: 5 mg/kg mice, 0.5 mg/kg rats IP, 16 hours before imaging; signal normalized to muscle, vs vehicle control
Method: as §1

Q: What does the source list for CCCCN(CCCC)c1ccc(/C=C/c2cc[n+](CCC[N+](C)(C)C)cc2)cc1.[Br-].[Br-] [Formula IA, (E)-4-(4-(dibutylamino)styryl)-1-(3-(trimethylammonio)propyl)pyridinium dibromide]?
A: Uptake: Intervertebral Disc (intervertebral discs; 5 mg/kg mice, 0.5 mg/kg rats IP, 16 hours before imaging, signal normalized to muscle, vs vehicle control): +; contrast in the intervertebral discs (intervertebral discs; IP administration to mice and rats): positive contrast; Uptake: Dorsal Root Ganglia (dorsal root ganglia): +; Uptake: Trigeminal Ganglia (trigeminal ganglia): +
